Like-named read-outs stand apart in the source and are kept apart here.
Tests used:
[1] = Blood metabolite levels in osteoporotic women administered 1α-OH-D2; format: in vivo, human; details: one day after a single 2 μg dose of 1α-OH-D2
Description: An increase in the production of 1α,24(S)-(OH)2 D2 relative to 1α,25-(OH)2 D2 has also been observed by the present inventors in human females who received 1α-OH-D2 as part of an investigation of that drug for the treatment of osteoporosis. Following either a single dose of 2 μg of 1α-OH-D2 or daily doses of 8 μg/day for one week, blood was collected and analyzed for the metabolites 1α,24(S)-(OH)2 D2 and 1α,25-(OH)2 D2. Lipid was extracted from the blood, and the metabolites were purified by HPLC using standard methods and quantified with the radioreceptor assay produced by Incstar (Stillwater, Minn.). One day after a single 2 μg dose, the level of 1α,24(S)-(OH)2 D2 was undetectable with the 1α,25-(OH)2 D2 level being approximately 11 pg/ml. In contrast, one day following the last dose of 8 μg, the level of 1α,24(S)-(OH)2 D2 averaged 9 pg/ml with the 1α,25-(OH)2 D2 level averaging 30 pg/ml.

[2] = format: in vivo, rat
Description: Vitamin D2 or 24-OH-D2 was administered (either oral or intraperitoneal supplementation) to vitamin D-deficient rats. Lipid extracts of the plasma were prepared and the metabolites purified by the method of Horst et al. (Horst, R. L., Koszewski, N. J. and Reinhardt, T. A., Biochem., 29:578-82 (1990)) described below for synthesyzing standard biological 1α,24-(OH)2 D2.
Standard biological 1α,24-(OH)2 D2 was synthesized in vitro from 24-OH-D2 by incubating 10 μg of 24-OH-D2 in flask containing 5 ml of 20% kidney homogenates made from vitamin D-deficient chicks. The product of this reaction was isolated by HPLC and identified by mass spectrometry.

[3] = test system: 1,25-(OH)2 D3 receptor site; details: Ishizuka et al., Steroids 1981, 1982; cited from earlier work
[4] = human, in vivo; cited from earlier work

With `C=C1/C(=C\C=C2/CCC[C@]3(C)[C@@H]([C@H](C)/C=C/[C@H](C)C(C)C)CC[C@@H]23)C[C@@H](O)C[C@@H]1O` [1α-OH-D2, 1α-hydroxy vitamin D2] the “Blood level of metabolite 1α,24(S)-(OH)2 D2” value [1] was “undetectable”.
For `C=C1CC[C@H](O)C/C1=C/C=C1\CCC[C@]2(C)[C@@H]([C@H](C)/C=C/[C@H](C)C(C)C)CC[C@@H]12` [vitamin D2], the “1α,24-(OH)2 D2 metabolite in plasma lipid extracts” value ([2]; vitamin D-deficient rats, oral or intraperitoneal, HPLC) was “co-migrated on HPLC with the standard 1α,24-(OH)2 D2”.
With `C=C1CC[C@H](O)C/C1=C/C=C1\CCC[C@]2(C)[C@@H]([C@H](C)/C=C/C(C)(O)C(C)C)CC[C@@H]12` (stereo partly drawn) [24-OH-D2, 24-hydroxyvitamin D2] the “1α,24-(OH)2 D2 metabolite in plasma lipid extracts” value ([2]; rat, in vivo) was “co-migrated on HPLC with the standard 1α,24-(OH)2 D2”.
In the case of `C=C1/C(=C\C=C2/CCC[C@]3(C)[C@@H]([C@H](C)CC[C@@H](O)C(C)C)CC[C@@H]23)C[C@@H](O)C[C@@H]1O` [1α,24(R)-(OH)2 D3, 1α,24(R)-dihydroxyvitamin D3], the “Binding of the 1,25-(OH)2 D3 receptor site relative to 1,25-(OH)2 D3” value [3] is listed as “more tightly than does 1,25-(OH)2 D3 itself”.
In the case of `C=C1/C(=C\C=C2/CCC[C@]3(C)[C@@H]([C@H](C)CCCC(C)C)CC[C@@H]23)C[C@@H](O)C[C@@H]1O` [1α-(OH)D3, 1α-hydroxy vitamin D3], the “Safety of dosage levels of 2.0 μg/day or greater” value [4] is given as “not safely obtained”.
For `C=C1CC[C@H](O)C/C1=C/C=C1\CCC[C@]2(C)[C@@H]([C@H](C)CCCC(C)C)CC[C@@H]12` [vitamin D3], the 24-OH-D3 in plasma ([2]; comparable vitamin D-deficient rats) was “no detectable 24-OH-D3”.

Reference: patent publication US6143910A, “Methods for preparation and use of 1α, 24(S) -dihydroxy vitamin D2” (priority 1998, dated 2000)
